Assay [1] addresses T1, Histidine tagged HIF-2α protein containing PAS-B domain (240-350) (Homo sapiens, UniProt Q99814).
T1 construct: HIF-2α protein containing PAS-B domain (240-350); made in house
Description: HIF-2α Scintillation Proximity Assay (SPA) binding assay. Particulars: 50 nM HIF-2α protein, 25 nM 3H-tracer. The procedure: HIF-2α Scintillation Proximity Assay (SPA) Binding Assay:
Tritium labeled compound N-(3-chlorophenyl)-4-nitro-2,1,3-benzoxadiazol-5-amine was obtained from American Radiolabeled Chemicals Inc. and copper chelate PVT SPA beads were from PerkinElmer (Cat #RPNQ0095). Histidine tagged HIF-2α protein containing PAS-B domain (240-350) was prepared and purified in house.
Compounds solubilized in DMSO were dispensed into a white 384-well polystyrene non-binding flat clear bottom plate (Greiner Bio-One, Cat #781903) using an HP D300 dispenser. Ten microliters of HIS-tagged HIF-2α protein in buffer (25 mM Tris-HCl, pH 7.4, 150 mM NaCl, 0.15% BSA and 0.001% Tween 20) was added to the compound wells and allowed to incubate for 1 hour at room temperature. Ten microliters of SPA bead mix were added to the wells and incubated for an additional 45 minutes, followed by 10 ul of ^3H-tracer solution. Final assay conditions comprised 50 nM HIF-2α protein, 25 nM radiolabeled tracer and 3 ug beads per well with compounds in 2% DMSO. The plate was read using a MicroBeta Microplate Counter (PerkinElmer) for luminescence detection. The IC50 values of the test compounds were determined from compound dose response curves fitted using a standard four parameter fit equation and are reported in Table 1, Table 2, and Table 3.
In general terms: In a scintillation proximity assay essentially only radioactivity close to the scintillant gives light.

The next assay addresses T2, HIF-2α (Homo sapiens, UniProt Q99814).
T2 construct: host or cells: 786-O cells stably transduced with Cignal Lenti HIF Luc Reporter (only the reporter was introduced, not HIF-2α)
Description: HIF-2α luciferase reporter assay in HIF-Luc-786-O cells. Type of assay: cell-based. The essentials: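 Luminescence (ONE-Glo) read after 20 h compound incubation, top concentration 50 uM, 1% DMSO, 20,000 HIF-Luc-786-O cells per well. Activity scaled between DMSO maximum and no-cell baseline; four-parameter dose-response fits yielded IC50.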
In general terms: Reporter assays use an easily measured gene product as a stand-in for the process of interest.

One may read the IC50 as the concentration that gives 50% inhibition. High values mean weaker potency, low ones greater potency.

SMILES strings stand for the structures.

T1 sequence (Q99814 240-350): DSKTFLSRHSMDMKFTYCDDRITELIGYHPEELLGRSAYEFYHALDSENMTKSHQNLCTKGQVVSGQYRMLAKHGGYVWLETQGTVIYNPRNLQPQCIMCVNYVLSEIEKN
T2 sequence (Q99814 whole entry): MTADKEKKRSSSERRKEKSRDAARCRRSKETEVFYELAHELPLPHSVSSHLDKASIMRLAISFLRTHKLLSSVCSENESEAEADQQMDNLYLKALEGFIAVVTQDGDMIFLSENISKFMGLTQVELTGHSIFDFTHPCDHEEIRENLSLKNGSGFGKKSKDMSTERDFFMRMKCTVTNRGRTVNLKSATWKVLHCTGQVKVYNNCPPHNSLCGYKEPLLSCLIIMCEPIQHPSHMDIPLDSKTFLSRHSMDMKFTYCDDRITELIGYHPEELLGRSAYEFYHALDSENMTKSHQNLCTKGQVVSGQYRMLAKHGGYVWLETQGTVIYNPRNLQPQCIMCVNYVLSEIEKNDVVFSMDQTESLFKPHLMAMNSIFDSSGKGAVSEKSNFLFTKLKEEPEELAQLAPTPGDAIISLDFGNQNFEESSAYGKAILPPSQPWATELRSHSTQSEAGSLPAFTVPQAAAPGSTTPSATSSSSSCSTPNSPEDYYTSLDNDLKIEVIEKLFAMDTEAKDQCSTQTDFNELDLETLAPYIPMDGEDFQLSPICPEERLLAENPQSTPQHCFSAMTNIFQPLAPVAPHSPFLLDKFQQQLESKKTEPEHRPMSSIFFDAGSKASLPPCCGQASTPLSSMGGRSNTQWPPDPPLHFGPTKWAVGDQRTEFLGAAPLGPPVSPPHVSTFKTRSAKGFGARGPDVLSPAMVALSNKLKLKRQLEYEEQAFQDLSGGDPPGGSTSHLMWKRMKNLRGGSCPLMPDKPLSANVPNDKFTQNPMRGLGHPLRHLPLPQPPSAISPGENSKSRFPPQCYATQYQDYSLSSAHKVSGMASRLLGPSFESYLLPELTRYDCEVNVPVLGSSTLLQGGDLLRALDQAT

In the case of `COC(=O)c1c(S(=O)(=O)C(F)(F)F)ccc(N2CCCc3cc(F)cc(F)c32)c1Cl` [Example 85], the IC50 in assay [1] (Table 1) was greater than 1000 nM; against HIF-2α (Table 1, 20 hours incubation), greater than 1000 nM.
`N#Cc1cc(F)cc2c1[C@H](c1ccc(S(=O)(=O)C(F)(F)F)c3c1CC[C@H]3O)CCC2` [Example 100]: the IC50 in assay [1] (Table 1) lay within 100 to 1000 nM; on HIF-2α (Table 1, 20 hours incubation), 100 to 1000 nM.
Regarding `Cc1c([C@H]2CC[C@H](F)c3cc(F)cc(C#N)c32)cnc(C(C)(F)F)c1F` [Example 139, (5S,8S)-8-[6-(1,1-difluoroethyl)-5-fluoro-4-methylpyridin-3-yl]-3,5-difluoro-5,6,7,8-tetrahydronaphthalene-1-carbonitrile], the IC50 in assay [1] (Table 2) was less than 100 nM; against HIF-2α (Table 2, 20 hours incubation) it was less than 100 nM.
As for `N#Cc1cc(S(=O)(=O)C(F)(F)F)ccc1N1CCCc2cc(F)cc(F)c21` [Example 80], the IC50 is greater than 1000 nM in assay [1] (Table 1) and greater than 1000 nM against HIF-2α (Table 1, 20 hours incubation).
Consider `N#Cc1cc(F)cc2c1N(c1ccc(C(F)(F)F)c(F)c1C#N)CCC2C#N` (centres unmarked) [Example 124, 1-[2-cyano-3-fluoro-4-(trifluoromethyl)phenyl]-6-fluoro-3,4-dihydro-2H-quinoline-4,8-dicarbonitrile], for which the concentration for half-maximal inhibition (IC50) in assay [1] (Table 2) is less than 100 nM; at HIF-2α (Table 2, 20 hours incubation), less than 100 nM.
Regarding `O=S(=O)(c1ccc(N2CCCc3cc(F)cc(F)c32)c2cccnc12)C(F)(F)F` [Example 21, 6,8-difluoro-8′-trifluoromethanesulfonyl-3,4-dihydro-2H-1,5′-biquinoline], the IC50 in assay [1] (Table 1) was greater than 1000 nM; against HIF-2α (Table 1, 20 hours incubation), greater than 1000 nM.
In the case of `N#Cc1cc(F)cc2c1[C@@H](c1ccc(C(F)(F)F)c(Cl)c1C#N)CC[C@@H]2F` [Example 137, (5S,8R)-8-[3-Chloro-2-cyano-4-(trifluoromethyl)phenyl]-3,5-difluoro-5,6,7,8-tetrahydronaphthalene-1-carbonitrile], the IC50 was less than 100 nM in assay [1] (Table 2) and less than 100 nM against HIF-2α (Table 2, 20 hours incubation).
In the case of `O=S(=O)(c1ccc(N2C[C@H](O)Cc3cc(F)cc(F)c32)c2c1[C@H](O)[C@H](F)C2)C(F)(F)F` [Example 50], the IC50 is greater than 1000 nM in assay [1] (Table 1) and greater than 1000 nM against HIF-2α (Table 1, 20 hours incubation).
Turning to `Cc1c(N2CCC(F)(F)c3cc(F)cc(C#N)c32)cnc(C(C)(F)F)c1F` [Example 126, 1-[6-(1,1-Difluoroethyl)-5-fluoro-4-methylpyridin-3-yl]-4,4,6-trifluoro-2,3-dihydroquinoline-8-carbonitrile], the IC50 was less than 100 nM in assay [1] (Table 2) and less than 100 nM on HIF-2α (Table 2, 20 hours incubation).
Take `Cc1ccc2c(c1)N(c1ccc(S(=O)(=O)C(F)(F)F)cc1[N+](=O)[O-])CCC2` [Example 74]: the IC50 in assay [1] (Table 1) was greater than 1000 nM; against HIF-2α (Table 1, 20 hours incubation) it was greater than 1000 nM.
For `O=[N+]([O-])c1cc(S(=O)(=O)C(F)(F)F)ccc1N1CCCc2ccc(F)c(F)c21` [Example 57], the IC50 in assay [1] (Table 1) was greater than 1000 nM; on HIF-2α (Table 1, 20 hours incubation), greater than 1000 nM.
For the molecule `Cc1cn[nH]c1-c1ccc([C@H]2CC[C@H](F)c3cc(F)cc(C#N)c32)c2c1[C@H](O)C(F)(F)C2` [Example 154, (5S,8R)-8-[(1S)-2,2-difluoro-1-hydroxy-7-(4-methyl-1H-pyrazol-5-yl)-1,3-dihydroinden-4-yl]-3,5-difluoro-5,6,7,8-tetrahydronaphthalene-1-carbonitrile], the IC50 is less than 100 nM in assay [1] (Table 3) and less than 100 nM against HIF-2α (Table 3, 20 hours incubation).
With `CS(=O)(=O)c1ccc([C@@H]2CNCc3cc(F)cc(F)c32)c2c1[C@H](O)C(F)(F)C2` [Example 107], the IC50 in assay [1] (Table 1) was greater than 1000 nM; on HIF-2α (Table 1, 20 hours incubation) it was greater than 1000 nM.
For the molecule `O=S(=O)(c1ccc(N2CCCc3cc(F)cc(F)c32)c2c1C(O)C(F)(F)C2)C(F)(F)F` (centres unmarked) [Example 38], the IC50 in assay [1] (Table 1) was in the range of 100 to 1000 nM; on HIF-2α (Table 1, 20 hours incubation) it was 100 to 1000 nM.
Regarding `CS(=O)(=O)c1ccc([C@H]2CCCc3cccc(C#N)c32)c2c1[C@H](O)[C@H](F)C2` [Example 97], the IC50 in assay [1] (Table 1) fell in the range of 100 to 1000 nM; at HIF-2α (Table 1, 20 hours incubation) it was 100 to 1000 nM.
Turning to `N#Cc1cc(F)cc2c1N(c1cnc(C(F)(F)F)c(F)c1Cl)CCC2` [Example 26], the half-maximal inhibitory concentration (IC50) is 100 to 1000 nM in assay [1] (Table 1) and 100 to 1000 nM on HIF-2α (Table 1, 20 hours incubation).

These data come from patent US11787762B2, “Tetralin and tetrahydroquinoline compounds as inhibitors of HIF-2alpha” (ARCUS BIOSCIENCES, INC., priority 2020, dated 2023).
